According to paper PMC8891108, “Development and characterization of anti-fibrotic natural compound similars with improved effectivity” (Basic Research in Cardiology, 2022):

Tests used:
Format in all cases: cell-based
[1] = tested on: human iPS-derived cardiomyocytes (hiPS-CM); test: LDH release in hiPS-CM; conditions: maximal available concentration
Protocol: (§1) As contrast to activity, toxicity of top six similars and lead compounds was determined by a multiplex measurement of caspase activation and membrane integrity (using LDH release and inclusion of the CellTox Green dye). Briefly, HCFs were seeded as before. After 24 h, cells were treated with serial dilutions of compounds with additional 0.1% CellTox™ Green dye (Promega, #G8741). After 24 h incubation, 5 µL medium was removed from each well, mixed with 95 µL LDH Storage buffer (Promega, #J2380) and frozen for later analysis. 95 µL Caspase-Glo® 3/7 reagent (Promega, #G8090) was added to each well, and after 60 min of incubation luminescence was measured in a Synergy HT. Afterwards, micrographs of brightfield and green fluorescence were taken using a Cytation 1 (BioTek) automated microscope maintaining 37 °C and 5% CO2. Wells were manually checked for co-localization of fluorescence signal with cells in brightfield. On the next day, supernatants in LDH Storage buffer were thawed, and 50 µL was mixed with 50 µL of LDH Detection reagent and luminescence was measured after 60 min of incubation. Dose–response curves were determined as described before. To determine toxicity of the top 3 anti-fibrotic similars in hiPS-CM, 20,000 cells/well were seeded, treated and analysed as above, devoid the fluorescent dye steps.

[2] = tested on: human iPS-derived cardiomyocytes (hiPS-CM); test: Caspase-3/7 activation in hiPS-CM; conditions: maximal available concentration
Protocol: as §1

[3] = tested on: human cardiac fibroblasts (HCF); test: In vitro migration (scratch) assay of HCF; conditions: 10 × EC50
Protocol: To assess migrative capabilities of HCF, cells were stained with 1:1000 1,1′-Dioctadecyl-3,3,3′,3′-Tetramethylindotricarbocyanine Iodide (DIR′) dye in FGM-3 for 20 min at 37 °C. Cells were washed with DPBS and seeded into 0.1% gelatine-coated 96-well plates at 30,000 cells per well. […] After 17 h and 24 h, plates were imaged again. Rate of migration was determined using the migrative index (MI).

[4] = tested on: human cardiac fibroblasts (HCF); test: Global RNA sequencing of treated HCF
Description: The NEBNext Ultra II Directional RNA Kit was used to prepare the samples (the same as for the nCounter® Fibrosis Panel, see above) for subsequent deep sequencing on a NovaSeq PE50 (Illumina) at HZI Braunschweig (Germany). Reads were trimmed and mapped to the human genome hg38.79 using RNA STAR (v2.4.2a, [11]) by HZI Braunschweig. RAW read counts were further analysed on Galaxy (v3.38.3, usegalaxy.org, [2]) using the limma-voom method. Low-expressed transcripts without more than 0.25 CPM (counts per million reads mapped) in at least 3 samples (42,079 of 61,043) were filtered out, and TMM (trimmed mean of M values) was the method used to normalise library sizes. Changes in transcript expression were considered significant if FDR [4] ≤ 0.05 and log2 |FC| ≥ 1.3.

[5] = tested on: human cardiac fibroblasts (HCF); test: BrdU incorporation, HCF proliferation (first screen)
Protocol: 96-well plates (TPP) were coated with 0.1% gelatine and seeded with 7500 HCFs/well. After 72 h, medium was exchanged with serial dilutions of compounds in FGM-3 + 1.6% DMSO + 1% 5-bromo-2′-deoxyuridine (BrdU, Roche, #11647229001), prepared in additional plates. After 24 h, cells were washed twice with DPBS (Gibco, #14190144) before incubation with anti-BrdU:POD (Roche, #11647229001) for 60 min (RT). Readout was performed by measurement of absorbance at 370 nm + 490 nm in a Synergy HT (BioTek) microplate reader. […] As validation, HCF were seeded as before, but treated with serial dilutions of compounds after 24 h. […] After 60 min of incubation (37 °C, in the dark), absorbance at 450 nm + 630 nm was measured maintaining 37 °C and analysed as described before.
To assess screening quality, quality acceptance criteria Z′ (Z prime), SW (signal window), S:B (signal-to-background), S:N (signal-to-noise) were determined following. Average Z′ ≥ 0.5 and SW ≥ 2 were required to accept the screening overall, whereas single plates were rejected from analysis if Z′ < 0.3 or SW < 1.

[6] = tested on: human cardiac fibroblasts (HCF); test: miRNA mimic / inhibitor transfection before compound treatment, WST-1 readout
Protocol: (§2) A mix of forward and reverse primer pairs (10 µM, Eurofins) or 10 × Quantitect Primer Assay (Qiagen, #249900) was used for mRNA. To measure miRNA, RNA was reverse-transcribed using the miRNA TaqMan MicroRNA Reverse Transcription Kit (Applied Biosystems, #4366597) with specific miRNA RT primers (ThermoFisher, #4427975). cDNA was diluted 1:3 with dH2O before qPCR with Absolute Blue qPCR Mix (Abgene, #AB-4136/B) and the specific Taqman probes (ThermoFisher, #4427975). Runs were performed in ViiA7 (Applied Biosystems) or QuantStudio 7 Flex (Applied Biosystems). Real-time qPCR data were analysed as described elsewhere.
To determine whether these miRNAs are part of and essential to the mechanism of action of the compounds, we transfected HCF with miR mimics or inhibitors of the miRNA candidates prior to compound treatment. If a miRNA is essential for the compounds’ mechanism, we would expect the absence of anti-proliferative effects after inhibition of this miRNA, whereas anti-proliferative effects would remain if the miRNA is rather a downstream element of the compound response.

[7] = tested on: human cardiac fibroblasts (HCF); test: nCounter Fibrosis Panel mRNA profiling of HCF; conditions: 24 h treatment
Protocol: Briefly, 100 ng/5µL isolated total RNA of HCF after 24 h treatment (RIN > 7.5 and […] > 88%) was mixed with the hybridization Master Mix and incubated at 65 °C for 20 h before loading on a nCounter® FLEX (Department of Pathology, Hannover Medical School, Germany). All run files (.RCC) were compiled into a single experiment using the nSolver analysis software. […] Reference genes for normalization were determined by nSolver using all samples (ACAD9, ARMH3, CNOT10, GUSB, MTMR14, NOL7, NUBP1, PGK1, PPIA, RPLP0, see supplemental Fig. 4e, f). We then used the Advanced analysis plugin (v2.0.115) including LOT as confounder variable and BY adjusted p value < 0.05 for identification of central deregulated pathways. Additionally, normalized counts were further analysed with GraphPad Prism using multiple unpaired t tests with FDR ≤ 5% after BKY adjustment and log2 |FC| ≥ 1.

[8] = tested on: human cardiac fibroblasts (HCF); test: TaqMan Array Human MicroRNA Cards, miRNA deregulation in HCF
Protocol: PCR amplification of array cards was performed as instructed. After quality control of all real-time qPCRs, cT values were exported and all runs were merged into a single excel file. Recommended baseline correction using relative thresholds to correct for varying reconstitution rates of different Taqman probes was not performed. Low-expressed miRNAs with cT > 32 in more than 1 replicate per treatment were excluded from analysis, before samples were normalized to column mean. Multiple unpaired t tests were performed using GraphPad Prism, deregulations were accepted as discoveries if FDR ≤ 1% (using BKY adjustment). As miRNA identifiers were based on miRbase v14, we converted them to the latest v22 for further analysis using miRBaseConverter. 747 sequences could be converted correctly, while the remaining miRNAs were removed from miRbase due to incorrect annotation (e.g. the sequences of hsa-miR-886-3p and hsa-miR-886-5p are part of VTRNA2-1 [44]) or no evidence of human expression.

[9] = tested on: human living myocardial slices; test: Ex vivo human living myocardial slices, qPCR gene expression; conditions: 48 h
Description: Myocardial slices were generated from human left ventricular heart specimens taken from failing hearts at the time of transplantation. Tissue was obtained from the Clinic for Cardiac, Thoracic, Transplant and Vascular Surgery at the Hannover Medical School (MHH), Hannover, Germany. Patients provided informed consent to the scientific use of the explanted tissue.
The preparation and culture of myocardial slices has been described before. Briefly, human heart specimens were sliced into 300 µm thick slices using a vibrating microtome (Campden Instruments, #7000smz-2) while in ice-cold 30 mM 2,3-butanedione monoxime + 1 mM D-glucose + 10 mM HEPES + 6 mM KCl + 140 mM NaCl + 1 mM MgCl2 + 1.8 mM CaCl2 (cardioplegic Tyrode’s solution), before being trimmed into approx. 7 × 7 mm pieces of aligned muscle fibres.
After 48 h in culture, myocardial slices were frozen in liquid nitrogen and stored at −80 °C for further gene expression analysis.
as §2

[10] = mean of DMSO minus mean of treatment

| LDH release [1] | Caspase-3/7 activation [2] | Compound | HCF migration [3] | downregulation of high- to medium-expressed collagen isoforms [4] | expression of FN1, PTN and BGN [4] | differentially expressed genes (DEGs) vs DMSO control ([4]; RNA sequencing) | expression of collagen isoforms ([4]; top 20 expressed isoforms) | inhibitory activity on HCF proliferation ([5]; BrdU incorporation) | EC50 fold lower than the EC50 of lycorine ([5]; HCF proliferation) | EC50 ([5]; Homo sapiens, Cardiac fibroblast, HCF, 24 h treatment, read-out: Effective conc. (BrdU), EC50 by BrdU assay) | anti-proliferative effect after inhibition of hsa-miR-132-3p [6] | anti-proliferative effect after overexpression of hsa-miR-125a-5p [6] | deregulation of fibrosis panel genes / pathways [7] | Mean of treatment, hsa-miR-28-3p-002446 ([8]; cT normalized to column mean) | Mean of treatment, hsa-miR-342-3p-002260 ([8]; cT normalized to column mean) | Difference / ΔCT, hsa-miR-28-3p-002446 [8, 10] | Difference / ΔCT, hsa-miR-342-3p-002260 [8, 10] | FAP expression (qPCR) [9] | MMP2 expression (qPCR) [9] |
| --- | --- | --- | --- | --- | --- | --- | --- | --- | --- | --- | --- | --- | --- | --- | --- | --- | --- | --- | --- |
| increased LDH release | Caspase-3/7 activation | COc1cccc2c1C(=O)c1c(O)c3c(c(O)c1C2=O)C[C@@](O)(C(=O)CO)C[C@@H]3O[C@H]1C[C@H](N)[C@H](O)[C@H](C)O1 [doxorubicin] |  |  |  |  |  |  |  |  |  |  |  |  |  |  |  |  |  |
|  |  | COC(=O)C[C@](O)(CCCC(C)(C)O)C(=O)O[C@@H]1C(OC)=C[C@]23CCCN2CCc2cc4c(cc2[C@H]13)OCO4 [lyco-s, homoharringtonine] | repressed migration only after several hours | approx. 90% | significantly downregulated | over 4000 | approx. tenfold | showed inhibitory activity | over 100 fold | 34 nM | protected | partially protected against the anti-proliferative effect | repressed genes related to endothelial mesenchymal transition (EMT), ECM homeostasis as well as collagen biosynthesis | -2.759 | -3.581 | 0.9679 | 1.208 | significant down-regulation | significant down-regulation |
